Measured values published in patent publication US20030157708A1, “Cell stimulation apparatus and a cell stimulation method” (priority 2001, published 2003).

What was measured:
Assay type in all cases: cell-based, mice
[1] = system: GABAA receptor β2 subunit; conditions: 7DIV granule cells, FIG. 10C; MK801 25 μM, CNQX 10 μM
cultured granule cells = test: Release of NRG into conditioned media, read by CREB-phosphorylation of granule cells; conditions: living cultured granule cells
Method: In D, using cerebellar granule cells, CREB-phosphorylation was checked after the conditioned medium stimulation. Serum-starved cerebellar granule cells were treated (for 5 to 10 minutes) with conditioned media collected from pontine nuclus neuron and granule cell cultures. The conditioned media from pontine nuclei neurons was used for stimulation in a, b and c. In d, e and f, conditioned media were prepared from granule cell culture.
To detect CREB phosphorylation, 7DIV cultured granule cells were fixed with 4% paraformaldehyde for 10 minutes after conditioned media stimulation for 10 to 15 minutes, and stained with a polyclonal anti-NRG β1 antibody, a polyclonal anti-PCREB antibody (BioLabs). […] Alexa™ dyes (Molecular probe) were used as a secondary antibody.
The soluble forms released by PMA stimulation (60 minutes) were enriched using a spin column and added into the cultured granule cells. The stimulated granule cells were stained with anti-phospho-CREB antibody after fixation. The conditioned media from the pontine nuclei neurons was used for stimulation (a, b and c) and that from granule cell cultures for stimulation (d, e and f). […] The conditioned media (c and f) should have contained cleaved endogenous and recombinant NRG The subtraction of b from c and e from f indicated CREB-phosphorylation induced by sNRG that was from recombinant mNRG. […]

[2] = system: NMDA receptor NR2C subunit; conditions: 7DIV granule cells, MK801 25 μM
ErbB4 = ErbB4 tyrosine-phosphorylation activity of conditioned media (immunoprecipitation / anti-phosphotyrosine blot); conditions: PMA stimulation for 60 minutes
Method: In B, pontine nuclei neurons and granule cells with and without transfection of the transmembrane form of NRG were prepared and stimulated by PMA for 60 minutes and then the conditioned media were collected. Tyrosin-phosphorylation activity of the conditioned media was examined using cerebellar granule cells. The granule cell cultures were stimulated for 5 to 10 minutes with the conditioned media that were collected and concentrated. Lysates from granule cells were resolved by SDS-PAGE, and the blot was probed with an anti-phosphotyrosine antibody (4G10) after immunoprecipitation with anti-ErbB4 antibody. Tyrosine-phosphorylated bands of 180 kD were observed by stimulation (B). The conditioned media were collected from PN(non-transfected pontine neuclei neurons), tPN(transfected pontine neuclei neurons), GC(non-transfected granule cells), and tGC(transfected-granule cells). The result is summarized in C. The experiments were repeated independently three or four times.
After electrical stimulation (1 mA, 30˜60V outside the cells) for 30 minutes on […] cells which were transfected with recombinant full length mNRG, the conditioned media obtained from the cells were collected and concentrated using centricon 10 and 100 (Millipore) to cut off large (>100 kd) and small (<10 kd) molecular weight proteins. […]

SMILES: N#Cc1cc2[nH]c(=O)c(=O)[nH]c2cc1[N+](=O)[O-] [CNQX]
- β2 transcription at 1.0 and 100 Hz stimulation, block [1]: blocked

SMILES: [Cl-].[K+] [KC1]
- release of NRG by stimulation (cultured granule cells): could not be observed

SMILES: C[C@]12N[C@H](Cc3ccccc31)c1ccccc12 [MK801]
- NR2C mRNA increase at 100 Hz (high frequency) stimulation, block ([2]; 30 minutes stimulation, TTX 1 μM, Cd 100 μM, EGTA 1 mM): strongly blocked
- NR2C elevated transcription at 1 and 100 Hz, block ([2]; FIG. 10C): strongly blocked
- β2 transcription at 1.0 and 100 Hz stimulation, block [1]: blocked

SMILES: CCCCCCCCCCCCCC(=O)O[C@@H]1[C@@H](C)[C@@]2(O)[C@@H](C=C(CO)C[C@]3(O)C(=O)C(C)=C[C@@H]23)[C@@H]2C(C)(C)[C@]12OC(C)=O [PMA, phorbol-12-myristate-13-acetate]
- Tyrosine-phosphorylated bands of 180 kD with conditioned media from mNRG-transfected neurons (ErbB4): clearly observed
